pIC50: −log10 of the molar value. Structures can show the parent of a compound that is named as a salt.
Tests used:
[1] = system: fluorescent AGEs (BSA-fructose/glucose system); test: Fluorescent AGEs formation in a BSA-fructose/glucose system; format: biochemical, bovine
Description: The formation of total fluorescent AGEs in glycated samples was assessed by determining their fluorescent intensities at an excitation/emission wavelength of 350/450 nm, as previously described. Glycated protein was prepared in vitro by incubating BSA in the presence of D-glucose (GLC) and D-fructose (FRC). The DOF extract and specific standards were dissolved in DMSO:water (1:4). BSA (4 mg/ml, 100 μl) was preliminary mixed with 50 μl of GLC (0.5 M) and 50 μl of FRC (0.5 M) in 20 mM sodium phosphate buffer (pH 7.4), and then 100 μl samples were added in the 96-well plate and incubated at 37.5° C. for 7 days. All solutions were prepared under sterile conditions and filtered using a 0.22-μm syringe before incubation. The assay was performed in triplicate, and AG was used as a positive control.

[2] = system: AGEs in wild type AB zebrafish; test: Anti-glycation activity on zebrafish (AGEs increase model, 0.4 M glucose); format: in vivo; conditions: 200 μg/mL, 5 dpf zebrafish, 24 h
Description: Zebrafish were all fed in fish culture water at 28° C. (water quality: 200 mg instant sea salt was added to 1 L reverse osmosis water, the conductivity was 450-550 μS/cm; PH 6.5~8.5; Hardness of 50-100 mg/L CaCO3), provided by a fish breeding center, experimental animal use license number: SYXK (Zhejiang) 2012-0171, feeding management in line with the international AAALAC certification (certification number: 001458) requirements. Wild type AB zebrafish are bred naturally in pairs. Zebrafish aged 5 days after fertilization (DPF) were used to evaluate the anti-aging efficacy of samples.
Five DPF wild type AB zebrafish were randomly selected and placed in 1.5 mL centrifuge tubes, with 10 zebrafish in each tube (experimental group). The extracts of Dendrobium officinale flower were given in aqueous solution with positive control aminoguanidine hydrochloride (AG) concentration of 200 μg/mL, and normal control group and model control group were set at the same time. The volume of each tube was 150 μL. […] After 24 h treatment on a 60° C. shaker, the supernatant was centrifuged and the data were collected using a multifunctional microplate reader, the fluorescent values of AGEs in each experimental group were analyzed, and the results of statistical analysis of this indicator were used to evaluate the anti-aging efficacy of samples.

[3] = system: CML expression in human dermal fibroblasts (HDFs); test: Anti-glycation activity on HDFs (CML immunofluorescence, glyoxal/MGO-induced); format: cell-based
Description: HDFs cells were digested from T75 flasks and seeded to 12 well culture plate on slides at 50,000 cells per well. After 48 h the cells were treated by 0.5 mM glyoxal for 48 h. Then the cells were treated with or without positive controls or active samples for an additional 48 h. At the end of the experiment, cell slides were washed once by phosphate-buffered saline (PBS) and fixed in polyformaldehyde overnight at 4° C. For […] (CML) biomarker staining, the slides were blocked in 1% bovine serum albumin (BSA) for 1 h then applied with primary CML antibody (1:50) overnight at 4° C. The next day secondary antibody (1:1000) was applied for 2 h at room temperature. […] Image J was used to quantified CML expression from different visions randomly picked by each group. Data is presented as the mean±SD, and analyzed with Student's t-test or one-way ANOVA. * P<0.05, ** P<0.01, *** P<0.001. […]
HDFs were cultured in high-glucose DMEM supplemented with 10% FBS containing 100 µg/ml of PS at 37° C. in a humidified 5% CO2 incubator. Cell viability was assessed using the CCK-8 kit. […] Counterstaining was performed by adopting anti-fluorescence quenching and sealing liquid containing DAPI, followed by visualisation and fluorescence image capture using a microscope (Leica, Germany). ImageJ software was used to quantify CML expression from different images randomly selected in each group.

IC50, fluorescent AGEs ([1]; BSA-fructose/glucose, 37.5° C., 7 days, text b277): 177.3 ± 11.6 mg/L
pIC50 ([1]; read-out: IC50, AGE formation): 2.79
Structure (SMILES): N=C(N)NN [Aminoguanidine hydrochloride]
AGEs fluorescence value (mean ± SE) [2]: 35106 ± 770
Anti-glycation effect, CML expression, AVE ([3]; 0.1 mM, 48 h after 0.5 mM glyoxal, Glyoxal = 100.00): 11.89
inhibition of glycation ([3]; positive compound AG, MGO-induced HDFs, CML IF): 88.11%
